From EP4631937A1, “CRYSTALLINE FORM OR AMORPHOUS FORM OF OXOISOINDOLE-5-FORMAMIDE COMPOUND OR SALT AND SOLVATE THEREOF” (Hangzhou Glubio Pharmaceutical Co., Ltd., priority 2022, dated 2024)

Key:
[1] = Stability test of crystalline forms (open container at 25°C/92% RH and 40°C/75% RH, sealed container at 60°C, 13 days; XRPD, HPLC, colour); type: physicochemical; details: for Initial purity (HPLC/SFC) Chemical purity / Initial purity (HPLC/SFC) Chiral purity: before storage
Protocol: Placed in a open container at 25°C/92% RH and 40°C/75% RH for 13 days, respectively, or in a sealed container at 60°C for 13 days. […]
(§1) Placed in a open container at 25 °C/92% RH and 40 °C/75% RH for 13 days, respectively, or in a sealed container at 60 °C for 13 days. […]
as §1

[2] = Hygroscopicity test by DVS, with XRPD after DVS; type: physicochemical; details: for 2nd adsorption weight change percentage / 2nd desorption weight change percentage / 1st adsorption weight change percentage / 1st desorption weight change percentage / XRPD after DVS test / moisture adsorbed (DVS): 25 °C; for XRPD after DVS test: after 40-0-95-0-40% RH
Protocol: • DVS Intrinsic Dynamic Vapor Sorption Instrument • Gas flow rate 200 sccm, furnace temperature 25 °C.
(§2) The hygroscopicity and dehydration behavior of crystalline form B was investigated by DVS. Humidity program: 25 °C, 40-0-95-0-40% RH, dm/dt 0.002, shortest equilibrium time was 60 min, and longest equilibrium time was 360 min. XRPD was also performed on the samples after DVS test to determine whether the crystal transformation occurred.
as §2, with “E” for “B”
as §2, with “G” for “B”

[3] = Stability test of crystalline forms (open container at 25°C/92% RH and 40°C/75% RH, sealed container at 60°C, 13 days; XRPD, HPLC, colour); type: physicochemical; details: for Color / Solid (XRPD) / Chiral purity / Chemical purity: Solid; for Chiral purity / Chemical purity: HPLC/SFC
[4] = Pharmacokinetic evaluation in mice by gavage; type: in vivo; set-up: AUClast /D: unit not given here; details: CD1 male mice, oral, 30 mg/kg
Protocol: CD1 male mice were selected and the test compound was administered orally. The drug concentration in plasma at different time points was quantitatively determined by LC/MS/MS to evaluate the pharmacokinetic characteristics of the test drug in mice.
Experimental materials: CD1 Mouse (male, 20-30 g, 6-8 weeks old, Zhejiang Weitong Lihua).
Blood was collected from the dorsal plantar vein at 0.25 h, 0.5 h, 1 h, 2 h, 4 h, 6 h, 8 h and 24 h after administration, placed in an anticoagulant tube containing EDTA-K2 and mixed, and centrifuged at 4°C and 4000 g for 5 minutes. The drug concentration in blood was determined by LC-MS/MS, and the relevant pharmacokinetic parameters were calculated by the non-compartmental linear/log trapezoidal method using Phoenix WinNonlin 6.3 pharmacokinetic software.

[5] = Solid, 40 °C/75% RH, open container, 13 days
[6] = relative humidity 0%, listed as Crystalline form B
[7] = relative humidity 10%, listed as Crystalline form B
[8] = relative humidity 20%, listed as Crystalline form B
[9] = relative humidity 30%, listed as Crystalline form B
[10] = relative humidity 40%, listed as Crystalline form B
[11] = relative humidity 50%, listed as Crystalline form B
[12] = relative humidity 60%, listed as Crystalline form B
[13] = relative humidity 70%, listed as Crystalline form B
[14] = relative humidity 80%, listed as Crystalline form B
[15] = relative humidity 90%, listed as Crystalline form B
[16] = relative humidity 95%, listed as Crystalline form B
[17] = 25 °C/92% RH, open container, 13 days
[18] = 40 °C/75% RH, open container, 13 days
[19] = 60 °C, sealed container, 13 days
[20] = mouse, plasma, 25 mM citrate buffer (pH 3) containing 5% Tween 80
[21] = relative humidity 0%, listed as Crystalline form E
[22] = relative humidity 10%, listed as Crystalline form E
[23] = relative humidity 20%, listed as Crystalline form E
[24] = relative humidity 30%, listed as Crystalline form E
[25] = relative humidity 40%, listed as Crystalline form E
[26] = relative humidity 50%, listed as Crystalline form E
[27] = relative humidity 60%, listed as Crystalline form E
[28] = relative humidity 70%, listed as Crystalline form E
[29] = relative humidity 80%, listed as Crystalline form E
[30] = relative humidity 90%, listed as Crystalline form E
[31] = relative humidity 95%, listed as Crystalline form E
[32] = 25 °C/92% RH, open container, 1 week, listed as Crystalline form E
[33] = 40 °C/75% RH, open container, 1 week, listed as Crystalline form E
[34] = 60 °C, sealed container, 1 week, listed as Crystalline form E

O=C1CC[C@H](N2Cc3cc(C(=O)N[C@H](c4ccc(Cl)cn4)C4CCC4)ccc3C2=O)C(=O)N1 [crystalline form B, N-((S)-(5-chloropyridin-2-yl)(cyclobutyl)methyl)-2-((S)-2,6-dioxopiperidin-3-yl)-1-oxoisoindoline-5-carboxamide]
Chemical purity ([1]; Solid, 25 °C/92% RH, open container, 13 days, HPLC/SFC): 99.2% See Figure 15c | Color [1, 5]: No color change | Solid (XRPD) [1, 5]: The crystal form did not change, see Figure 15e | Initial purity (HPLC/SFC) Chemical purity ([1]; listed as Crystalline form B): 99.5% See Figure 15a | Initial purity (HPLC/SFC) Chiral purity ([1]; listed as Crystalline form B): 99.0% See Figure 15b | 2nd adsorption weight change percentage ([2]; relative humidity 0%): 0.0% | 2nd desorption weight change percentage ([2]; relative humidity 0%): 0.0% | 1st adsorption weight change percentage [2, 6]: 1.6% | 1st desorption weight change percentage [2, 6]: 1.6% | 1st adsorption weight change percentage [2, 7]: 2.0% | 1st desorption weight change percentage [2, 7]: 2.0% | 2nd adsorption weight change percentage [2, 7]: 0.4% | 2nd desorption weight change percentage [2, 7]: 0.4% | 1st adsorption weight change percentage [2, 8]: 2.7% | 1st desorption weight change percentage [2, 8]: 2.7% | 2nd adsorption weight change percentage [2, 8]: 1.1% | 2nd desorption weight change percentage [2, 8]: 1.1% | 1st adsorption weight change percentage [2, 9]: 3.2% | 1st desorption weight change percentage [2, 9]: 3.3% | 2nd adsorption weight change percentage [2, 9]: 1.7% | 2nd desorption weight change percentage [2, 9]: 1.7% | 1st adsorption weight change percentage [2, 10]: 3.7% | 1st desorption weight change percentage [2, 10]: 3.8% | 2nd adsorption weight change percentage [2, 10]: 2.2% | 2nd desorption weight change percentage [2, 10]: 2.3% | 1st adsorption weight change percentage [2, 11]: 4.5% | 2nd desorption weight change percentage [2, 11]: 3.3% | 1st adsorption weight change percentage [2, 12]: 5.0% | 2nd desorption weight change percentage [2, 12]: 3.9% | 1st adsorption weight change percentage [2, 13]: 5.4% | 2nd desorption weight change percentage [2, 13]: 5.4% | 1st adsorption weight change percentage [2, 14]: 5.9% | 2nd desorption weight change percentage [2, 14]: 5.9% | 1st adsorption weight change percentage [2, 15]: 6.9% | 2nd desorption weight change percentage [2, 15]: 7.3% | 1st adsorption weight change percentage [2, 16]: 9.2% | 2nd desorption weight change percentage [2, 16]: 9.2% | XRPD after DVS test ([2]; listed as Crystalline form B): The crystal form did not change, see Figure 18b | stability (crystal form) ([2]; hygroscopic tests of Table 17, Table 18 and Table 19, DVS 25 °C, 40-0-95-0-40% RH): the crystal form did not change | moisture adsorbed (DVS) ([2]; under 40%RH-80%RH): 2.2% | moisture adsorbed (DVS) ([2]; under 40%RH-95%RH, listed as Crystalline form B): 5.5% | Color [3, 17]: No color change | Solid (XRPD) [3, 17]: The crystal form did not change, see Figure 15e | Chiral purity [3, 17]: 98.8% See Figure 15d | Chemical purity [3, 18]: 97.9% See Figure 15f | Chiral purity [3, 18]: 98.8% See Figure 15g | Color [3, 19]: No color change | Solid (XRPD) [3, 19]: The crystal form did not change, see Figure 15e | Chemical purity [3, 19]: 97.8% See Figure 15h | Chiral purity [3, 19]: 98.9% See Figure 15i | stability (crystal form) ([3]; stability tests of Table 14, Table 15 and Table 16, 25°C/92% RH, 40°C/75% RH, 60°C, 13 days): the crystal form did not change

O=C1CC[C@H](N2Cc3cc(C(=O)N[C@H](c4ccc(Cl)cn4)C4CCC4)ccc3C2=O)C(=O)N1 [Amorphous]
AUClast /D ([4]; 25 mM citrate buffer (pH 3) containing 5% Tween 80, dose-normalised): 1178 ± 116 | AUC(0-inf) [4, 20]: 35900 ± 3760 ng·h/mL | AUC(0-t) [4, 20]: 35300 ± 3480 ng·h/mL | Cmax [4, 20]: 17800 ± 3130 ng/mL | Tmax [4, 20]: 0.42 h | half-life [4, 20]: 3.1 h

O=C1CC[C@H](N2Cc3cc(C(=O)N[C@H](c4ccc(Cl)cn4)C4CCC4)ccc3C2=O)C(=O)N1 [crystalline form E, N-((S)-(5-chloropyridin-2-yl)(cyclobutyl)methyl)-2-((S)-2,6-dioxopiperidin-3-yl)-1-oxoisoindoline-5-carboxamide]
Initial purity (HPLC/SFC) Chemical purity ([1]; listed as Crystalline form E): 99.3% See Figure 16a | Initial purity (HPLC/SFC) Chiral purity ([1]; listed as Crystalline form E): 98.7% See Figure 16b | 1st adsorption weight change percentage [2, 21]: 0.1% | 1st desorption weight change percentage [2, 21]: 0.1% | 1st adsorption weight change percentage [2, 22]: 0.3% | 1st desorption weight change percentage [2, 22]: 0.3% | 2nd adsorption weight change percentage [2, 22]: 0.3% | 2nd desorption weight change percentage [2, 22]: 0.3% | 1st adsorption weight change percentage [2, 23]: 1.3% | 1st desorption weight change percentage [2, 23]: 1.3% | 2nd adsorption weight change percentage [2, 23]: 1.3% | 2nd desorption weight change percentage [2, 23]: 1.3% | 1st adsorption weight change percentage [2, 24]: 1.6% | 1st desorption weight change percentage [2, 24]: 1.6% | 2nd adsorption weight change percentage [2, 24]: 1.6% | 2nd desorption weight change percentage [2, 24]: 1.6% | 1st adsorption weight change percentage [2, 25]: 2.0% | 1st desorption weight change percentage [2, 25]: 2.0% | 2nd adsorption weight change percentage [2, 25]: 2.0% | 2nd desorption weight change percentage [2, 25]: 2.0% | 1st adsorption weight change percentage [2, 26]: 2.7% | 2nd desorption weight change percentage [2, 26]: 2.8% | 1st adsorption weight change percentage [2, 27]: 3.1% | 2nd desorption weight change percentage [2, 27]: 3.3% | 1st adsorption weight change percentage [2, 28]: 3.5% | 2nd desorption weight change percentage [2, 28]: 3.5% | 1st adsorption weight change percentage [2, 29]: 3.6% | 2nd desorption weight change percentage [2, 29]: 3.6% | 1st adsorption weight change percentage [2, 30]: 3.8% | 2nd desorption weight change percentage [2, 30]: 3.8% | 1st adsorption weight change percentage [2, 31]: 4.0% | 2nd desorption weight change percentage [2, 31]: 4.0% | XRPD after DVS test ([2]; listed as Crystalline form E): The crystal form did not change, see Figure 19b | moisture adsorbed (DVS) ([2]; under 40%RH-95%RH, listed as Crystalline form E): 2.0% of moisture was adsorbed under 40%RH-95%RH, see Figure 19a | Color ([3]; 25 °C/92% RH, open container, 1 week): No color change | Chemical purity [3, 32]: 98.3% See Figure 16c | Chiral purity [3, 32]: 98.6% See Figure 16d | Solid (XRPD) [3, 32]: The crystal form did not change, see Figure 16e | Color ([3]; 40 °C/75% RH, open container, 1 week): No color change | Chemical purity [3, 33]: 98.6% See Figure 16f | Chiral purity [3, 33]: 98.6% See Figure 16g | Solid (XRPD) [3, 33]: The crystal form did not change, see Figure 16e | Color ([3]; 60 °C, sealed container, 1 week): No color change | Chemical purity [3, 34]: 98.8% See Figure 16h | Chiral purity [3, 34]: 98.7% See Figure 16i | Solid (XRPD) [3, 34]: The crystal form did not change, see Figure 16e
